Laboratory results from ChEMBL document CHEMBL4321865, “Discovery of Novel Inhibitors of LpxC Displaying Potent in Vitro Activity against Gram-Negative Bacteria” (J Med Chem, 2020).
≈ marks a conversion by molar mass, not a printed value.

Tests used:
[1] = system: Klebsiella pneumoniae; test: microbe, parasite or virus in culture; details: T 6474
Description: Antibacterial activity against multi-drug resistant Klebsiella pneumoniae T 6474 by broth microdilution method

[2] = system: Pseudomonas aeruginosa; test: microbe, parasite or virus in culture; details: ATCC 27853
Description: Antimicrobial activity against Pseudomonas aeruginosa ATCC 27853 by broth microdilution method

[3] = system: Escherichia coli; test: microbe, parasite or virus in culture; details: ATCC 25922
Description: Antibacterial activity against wild-type Escherichia coli ATCC 25922 by broth microdilution method

[4] = system: T1, UDP-3-O-acyl-N-acetylglucosamine deacetylase (Escherichia coli K-12), P0A725 [C125S]
T1 sequence (whole entry): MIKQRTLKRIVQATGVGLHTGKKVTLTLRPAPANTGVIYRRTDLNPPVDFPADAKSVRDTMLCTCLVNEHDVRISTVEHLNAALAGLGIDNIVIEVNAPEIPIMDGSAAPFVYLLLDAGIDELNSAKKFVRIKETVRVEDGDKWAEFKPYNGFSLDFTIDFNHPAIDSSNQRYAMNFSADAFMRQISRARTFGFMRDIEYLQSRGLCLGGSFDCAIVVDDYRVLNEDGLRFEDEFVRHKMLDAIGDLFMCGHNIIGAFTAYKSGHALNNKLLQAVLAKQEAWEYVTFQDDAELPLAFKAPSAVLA

[5] = physchem; details: DMSO, pH 7
Description: Solubility of the compound in DMSO at pH 7 incubated for 24 hrs by LC-UV method

[6] = system: Pseudomonas aeruginosa; test: Antimicrobial activity against Pseudomonas aeruginosa PA2616 harboring delta mexAB-OprM mutant by broth microdilution method; format: functional
[7] = system: T2, UDP-3-O-acyl-N-acetylglucosamine deacetylase (Pseudomonas aeruginosa (strain ATCC 15692 / PAO1 / 1C / PRS 101 / LMG12228)), P47205 [C40S]
T2 sequence (whole entry): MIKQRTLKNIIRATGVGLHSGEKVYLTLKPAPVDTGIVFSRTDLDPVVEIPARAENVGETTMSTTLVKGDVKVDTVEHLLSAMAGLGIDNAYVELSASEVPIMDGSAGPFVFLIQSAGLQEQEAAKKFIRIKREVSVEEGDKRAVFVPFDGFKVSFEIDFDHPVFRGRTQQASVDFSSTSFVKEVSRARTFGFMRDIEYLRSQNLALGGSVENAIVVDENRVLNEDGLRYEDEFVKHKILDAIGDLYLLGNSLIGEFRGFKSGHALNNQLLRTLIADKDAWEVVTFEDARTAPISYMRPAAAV

[8] = system: Pseudomonas aeruginosa; test: microbe, parasite or virus in culture; details: PAO1
Description: Antimicrobial activity against wild-type Pseudomonas aeruginosa PAO1 by broth microdilution method

[9] = physchem; details: DMSO, pH 9
Description: Solubility of the compound in DMSO at pH 9 incubated for 24 hrs by LC-UV method

[10] = physchem; details: n-octanol/phosphate buffered saline, pH 7.4
Description: n-Octanol/phosphate buffered saline partition coefficient, log D of the compound at pH 7.4 by LC-UV method

[11] = Cmax in NMRI/ICR CD-1 mouse at 50 mg/kg, sc by LC-MS/MS analysis; format: ADME, organism-based; design: dose 50 mg/kg, route subcutaneous; details: in vivo
[12] = in vivo; details: NMRI/ICR CD-1, mouse, sc, 50 mg/kg
[13] = mouse, in vivo, sc, 50 mg/kg
[14] = Apparent clearance in NMRI/ICR CD-1 mouse at 50 mg/kg, sc by LC-MS/MS analysis; format: ADME, organism-based; details: in vivo
[15] = physchem; details: DMSO, pH 4
Description: Solubility of the compound in DMSO at pH 4 incubated for 24 hrs by LC-UV method

[16] = Tmax in NMRI/ICR CD-1 mouse at 50 mg/kg, sc by LC-MS/MS analysis; format: ADME, organism-based; details: in vivo
[17] = system: Escherichia coli; test: Antibacterial activity against Escherichia coli infected in cyclophosphamide-induced NMRI/ICR CD-1 mouse model of neutropenic thigh infection assessed as reduction in thigh bacterial load at 150 mg/kg, sc measured after 22 hrs relative to control; format: functional
[18] = system: Mus musculus; test: Apparent unbound clearance in NMRI/ICR CD-1 mouse at 50 mg/kg, sc by LC-MS/MS analysis; format: ADME, organism-based; details: in vivo
[19] = system: Escherichia coli; test: Antibacterial activity against Escherichia coli infected in cyclophosphamide-induced NMRI/ICR CD-1 mouse model of neutropenic thigh infection assessed as reduction in thigh bacterial load at 50 mg/kg, sc measured after 22 hrs relative to control; format: functional
[20] = mouse, plasma, 1 µM
Description: Protein binding in mouse plasma assessed as fraction unbound at 1 uM by equilibrium dialysis method

[21] = system: Escherichia coli; test: Antibacterial activity against Escherichia coli infected in cyclophosphamide-induced NMRI/ICR CD-1 mouse model of neutropenic thigh infection assessed as reduction in thigh bacterial load at 450 mg/kg, sc administered as single dose measured after 22 hrs relative to control; format: functional
[22] = system: Escherichia coli; test: Antibacterial activity against Escherichia coli infected in cyclophosphamide-induced NMRI/ICR CD-1 mouse model of neutropenic thigh infection assessed as reduction in thigh bacterial load at 112.54 mg/kg, sc administered at 5.5 hrs interval for 4 times relative to control; format: functional
[23] = system: Mus musculus; test: Apparent unbound clearance in NMRI/ICR CD-1 mouse at 75 mg/kg, sc by LC-MS/MS analysis; format: ADME, organism-based; details: in vivo
[24] = Free AUC (0 to 24 hrs) in NMRI/ICR CD-1 mouse at 75 mg/kg, sc by LC-MS/MS analysis; format: ADME, organism-based; details: in vivo
[25] = Apparent clearance in NMRI/ICR CD-1 mouse at 75 mg/kg, sc by LC-MS/MS analysis; format: ADME, organism-based; details: in vivo

SMILES | MIC [1] [µg/mL] | MIC [2] [µg/mL] | MIC [3] [µg/mL] | ΔTm [4] [°C] | solubility at 24 h [5] [µg/mL] | MIC [6] [µg/mL] | ΔTm [7] [°C] | MIC [8] [µg/mL] | solubility at 24 h [9] [µg/mL] | logD [10] | Cmax [11] [ng/mL] | AUC(0-t) at 24 h [12] [ng·h/mL] | Fu [20] [%] | further results
COc1ccc(-c2ccc3c(c2)CN(CC[C@](C)(C(=O)NO)S(C)(=O)=O)C3=O)c(F)c1 | ≤ 0.06 | 2 (≈ 4.44 µM) | ≤ 0.06 | 9.1 | 5 (≈ 11.1 µM) | 0.25 (≈ 0.555 µM) | 11 | 2 (≈ 4.44 µM) | 22 (≈ 48.8 µM) | 1.9 | – | – | – | –
COc1ccc(-c2cc3c(s2)C(=O)N(CC[C@](C)(C(=O)NO)S(C)(=O)=O)C3)c(F)c1 | 0.25 (≈ 0.548 µM) | 1 (≈ 2.19 µM) | ≤ 0.06 | 9.3 | 5 (≈ 11 µM) | 0.12 (≈ 0.263 µM) | 12.4 | 0.5 (≈ 1.1 µM) | 36 (≈ 78.9 µM) | 2.1 | – | – | – | –
COc1ccc(-c2cn3c(n2)CN(CC[C@](C)(C(=O)NO)S(C)(=O)=O)C3=O)c(F)c1 | 16 (≈ 36.3 µM) | > 32 | 4 (≈ 9.08 µM) | 6 | – | 8 (≈ 18.2 µM) | 6.9 | > 32 | – | – | – | – | – | –
C[C@@](CCN1Cc2cc(C#Cc3ccc([C@H](O)CO)cc3)cn2C1=O)(C(=O)NO)S(C)(=O)=O | 1 (≈ 2.1 µM) | 1 (≈ 2.1 µM) | 0.5 (≈ 1.05 µM) | 11.1 | 605 (≈ 1270 µM) | – | 12.7 | 1 (≈ 2.1 µM) | 660 (≈ 1390 µM) | 0.5 | 41300 | 76500 | 0.016 | fAUC [13]: 1230 ng·h/mL; CL/F [14]: 10.8 mL/min/kg; solubility at 24 h [15]: 167 µg/mL (≈ 351 µM); Tmax [16]: 30 min; fold change (FC) [17]: 0.4; CLu/F [18]: 680 mL/min/kg; fold change (FC) [19]: 2.4
C[C@@](CCN1Cc2cc(C#CC#CC3(CO)CC3)cn2C1=O)(C(=O)NO)S(C)(=O)=O | 1 (≈ 2.31 µM) | 0.5 (≈ 1.15 µM) | 0.25 (≈ 0.577 µM) | 9.9 | – | – | 12.5 | 1 (≈ 2.31 µM) | – | – | 20200 | 33000 | 0.085 | fAUC [13]: 2810 ng·h/mL; CL/F [14]: 25.1 mL/min/kg; Tmax [16]: 30 min; fold change (FC) [17]: 0.8; CLu/F [18]: 295 mL/min/kg; fold change (FC) [21]: 1; fold change (FC) [19]: 2.1; fold change (FC) [22]: 1.5
COc1ccc(-c2cn(CC[C@@](C)(C(=O)NO)S(C)(=O)=O)c(=O)o2)c(F)c1 | > 32 | > 32 | > 32 | 1.9 | – | 16 (≈ 39.8 µM) | 3.7 | > 32 | – | – | – | – | – | –
COc1ccc(-c2cn(CC[C@](C)(C(=O)NO)S(C)(=O)=O)c(=O)o2)c(F)c1 | 16 (≈ 39.8 µM) | 8 (≈ 19.9 µM) | 8 (≈ 19.9 µM) | 5.2 | – | 1 (≈ 2.49 µM) | 9.9 | 8 (≈ 19.9 µM) | – | – | – | – | – | –
COc1ccc(-c2ccn(CC[C@](C)(C(=O)NO)S(C)(=O)=O)c(=O)c2)c(F)c1 | 0.25 (≈ 0.606 µM) | 0.5 (≈ 1.21 µM) | ≤ 0.06 | – | 130 (≈ 315 µM) | ≤ 0.06 | – | 0.25 to 0.5 (≈ 0.606 to 1.21 µM) | 692 (≈ 1680 µM) | 1.1 | 10300 | 11700 | 0.31 | CLu/F [23]: 231 mL/min/kg; fAUC [24]: 3620 ng·h/mL; CL/F [25]: 72 mL/min/kg
